Our source for the MIC and logP values is ChEMBL document CHEMBL3352064, “Synthesis and bioactive evaluation of a novel series of coumarinazoles” (Bioorg Med Chem Lett, 2014).

Values after ≈ are worked out from the molar mass of the structure shown. Some results are limits rather than exact numbers.

The subject of one data set is Shigella dysenteriae. Put plainly: Antimicrobial activity against Shigella dysenteriae by two-fold serial dilution technique. Type of data set: functional.
Another data set concerns Cyberlindnera jadinii. Put plainly: Antimicrobial activity against Candida utilis by two-fold serial dilution technique. Type of data set: functional. The following applies: Williopsis jadinii.
Another data set concerns Staphylococcus aureus. Put plainly: Antimicrobial activity against methicillin-resistant Staphylococcus aureus N315 by two-fold serial dilution technique. Type of data set: functional.
Another data set relates to Bacillus subtilis. Put plainly: Antimicrobial activity against Bacillus subtilis by two-fold serial dilution technique. Type of data set: functional.
Another data set has as its system Aspergillus flavus. Put plainly: Antimicrobial activity against Aspergillus flavus by two-fold serial dilution technique. The format is functional.
For a further data set, the system named is Candida albicans. Put plainly: Antimicrobial activity against Candida albicans by two-fold serial dilution technique. Type of data set: functional.
The subject of a further data set is Candida. Nature of the data set: Antimicrobial activity against Candida mycoderma by two-fold serial dilution technique. The format is functional.
The next data set relates to Pseudomonas aeruginosa. Nature of the data set: Antimicrobial activity against Pseudomonas aeruginosa by two-fold serial dilution technique. The format is functional.
Another data set concerns Saccharomyces cerevisiae. Put plainly: Antimicrobial activity against Saccharomyces cerevisiae by two-fold serial dilution technique. The format is functional.
The subject of another data set is Micrococcus luteus. Nature of the data set: Antimicrobial activity against Micrococcus luteus ATCC 4698 by two-fold serial dilution technique. Type of data set: functional.
The subject of another data set is Escherichia coli. Put plainly: Antimicrobial activity against Escherichia coli JM109 by two-fold serial dilution technique. The format is functional.
A short description of data set [1]: n-Octanol-water partition coefficient, log P of the compound after 24 hrs by shake flask method. The format is physicochemical.

The term MIC denotes the smallest concentration in the dilution series that meets the test's criterion for growth inhibition. Higher therefore signals a need for much substance. For the compound `Cc1cc(=O)oc2cc(OCC3CO3)ccc12` (stereo not drawn), the MIC came to 4 µg/mL (≈ 17.2 µM) against Shigella dysenteriae; 32 µg/mL (≈ 138 µM) in the data set on Cyberlindnera jadinii; 128 µg/mL (≈ 551 µM) in the data set with Staphylococcus aureus; 2 µg/mL (≈ 8.61 µM) against Bacillus subtilis; 1 µg/mL (≈ 4.31 µM) against Aspergillus flavus; 16 µg/mL (≈ 68.9 µM) against Candida albicans. Moreover, the MIC came to 8 µg/mL (≈ 34.4 µM) against Candida; 8 µg/mL (≈ 34.4 µM) against Pseudomonas aeruginosa; 1 µg/mL (≈ 4.31 µM) with Saccharomyces cerevisiae; 4 µg/mL (≈ 17.2 µM) with Micrococcus luteus; 0.5 µg/mL (≈ 2.15 µM) in the data set with Escherichia coli.
The logP is a log measure of how a compound divides between an organic and an aqueous phase. A high value points to higher lipophilicity. `Cc1cc(=O)oc2cc(OCC(O)Cn3cncn3)ccc12` (stereo not drawn) displayed a logP at 24 h in [1] of 0.45. Further, the MIC came out at 32 µg/mL (≈ 106 µM) against Shigella dysenteriae; 4 µg/mL (≈ 13.3 µM) in the data set on Cyberlindnera jadinii; 32 µg/mL (≈ 106 µM) against Staphylococcus aureus; 32 µg/mL (≈ 106 µM) with Bacillus subtilis; 6 µg/mL (≈ 19.9 µM) against Aspergillus flavus; 4 µg/mL (≈ 13.3 µM) in the data set with Candida albicans. Further, the MIC is 16 µg/mL (≈ 53.1 µM) in the data set on Candida; 4 µg/mL (≈ 13.3 µM) against Pseudomonas aeruginosa; 32 µg/mL (≈ 106 µM) with Saccharomyces cerevisiae; 16 µg/mL (≈ 53.1 µM) against Micrococcus luteus; 64 µg/mL (≈ 212 µM) in the data set with Escherichia coli.
Compound `Cc1cc(=O)oc2cc(OCC(O)Cn3nnc4ccccc43)ccc12` (stereo not drawn) had a logP at 24 h in data set [1] of 0.6. Also, the MIC in the data set with Shigella dysenteriae came to 64 µg/mL (≈ 182 µM); against Cyberlindnera jadinii, 16 µg/mL (≈ 45.5 µM); in the data set with Staphylococcus aureus it was 16 µg/mL (≈ 45.5 µM); in the data set with Bacillus subtilis it was 16 µg/mL (≈ 45.5 µM); against Aspergillus flavus, 256 µg/mL (≈ 729 µM); with Candida albicans, 4 µg/mL (≈ 11.4 µM). The MIC amounted to 16 µg/mL (≈ 45.5 µM) in the data set on Candida; 32 µg/mL (≈ 91.1 µM) with Pseudomonas aeruginosa; 8 µg/mL (≈ 22.8 µM) in the data set on Saccharomyces cerevisiae; 32 µg/mL (≈ 91.1 µM) against Micrococcus luteus; 16 µg/mL (≈ 45.5 µM) in the data set with Escherichia coli.
For the compound `Cc1cc(=O)oc2cc(OCC(O)Cn3cnc4ccccc43)ccc12` (stereo not drawn), the logP at 24 h in data set [1] came out at 0.55. Moreover, the MIC against Shigella dysenteriae is 512 µg/mL (≈ 1460 µM); against Cyberlindnera jadinii, 512 µg/mL (≈ 1460 µM); in the data set on Staphylococcus aureus, 512 µg/mL (≈ 1460 µM); against Bacillus subtilis, 128 µg/mL (≈ 365 µM); in the data set on Aspergillus flavus, greater than 512 µg/mL; with Candida albicans, 128 µg/mL (≈ 365 µM). The MIC against Candida was 128 µg/mL (≈ 365 µM); against Pseudomonas aeruginosa it was greater than 512 µg/mL; in the data set with Saccharomyces cerevisiae it was 512 µg/mL (≈ 1460 µM); in the data set with Micrococcus luteus, 512 µg/mL (≈ 1460 µM); with Escherichia coli, 128 µg/mL (≈ 365 µM).
As for `Cc1cc2ncn(CC(O)COc3ccc4c(C)cc(=O)oc4c3)c2cc1C` (stereo not drawn), the logP at 24 h in [1] came to 0.61. Also, the MIC came out at 64 µg/mL (≈ 169 µM) against Shigella dysenteriae; 4 µg/mL (≈ 10.6 µM) against Cyberlindnera jadinii; 64 µg/mL (≈ 169 µM) against Staphylococcus aureus; 128 µg/mL (≈ 338 µM) with Bacillus subtilis; 128 µg/mL (≈ 338 µM) against Aspergillus flavus; 16 µg/mL (≈ 42.3 µM) in the data set on Candida albicans. In addition, the MIC in the data set with Candida turned out to be 16 µg/mL (≈ 42.3 µM); in the data set on Pseudomonas aeruginosa it was 64 µg/mL (≈ 169 µM); with Saccharomyces cerevisiae, 32 µg/mL (≈ 84.6 µM); in the data set on Micrococcus luteus it was 128 µg/mL (≈ 338 µM); in the data set with Escherichia coli, 128 µg/mL (≈ 338 µM).
On to `Cc1cc(=O)oc2cc(OCC(O)CSc3nc4ccccc4[nH]3)ccc12` (stereo not drawn), for which the logP at 24 h in data set [1] came to 0.49. For the same compound, the MIC in the data set with Shigella dysenteriae was determined as 64 µg/mL (≈ 167 µM); with Cyberlindnera jadinii it was 0.5 µg/mL (≈ 1.31 µM); against Staphylococcus aureus it was 32 µg/mL (≈ 83.7 µM); in the data set on Bacillus subtilis, 32 µg/mL (≈ 83.7 µM); in the data set on Aspergillus flavus it was 16 µg/mL (≈ 41.8 µM); against Candida albicans it was 32 µg/mL (≈ 83.7 µM). Also, the MIC with Candida is 16 µg/mL (≈ 41.8 µM); with Pseudomonas aeruginosa, 64 µg/mL (≈ 167 µM); in the data set on Saccharomyces cerevisiae, 64 µg/mL (≈ 167 µM); against Micrococcus luteus, 16 µg/mL (≈ 41.8 µM); in the data set on Escherichia coli, 0.5 µg/mL (≈ 1.31 µM).
With `Cc1cc(=O)oc2cc(OCC3CO3)cc(OCC3CO3)c12` (stereo not drawn), the MIC was 4 µg/mL (≈ 13.1 µM) in the data set on Shigella dysenteriae; 16 µg/mL (≈ 52.6 µM) with Cyberlindnera jadinii; 64 µg/mL (≈ 210 µM) against Staphylococcus aureus; 4 µg/mL (≈ 13.1 µM) with Bacillus subtilis; 16 µg/mL (≈ 52.6 µM) in the data set on Aspergillus flavus; 8 µg/mL (≈ 26.3 µM) against Candida albicans. The MIC against Candida amounted to 8 µg/mL (≈ 26.3 µM); against Pseudomonas aeruginosa, 8 µg/mL (≈ 26.3 µM); in the data set with Saccharomyces cerevisiae it was 8 µg/mL (≈ 26.3 µM); in the data set with Micrococcus luteus it was 8 µg/mL (≈ 26.3 µM); against Escherichia coli, 0.5 µg/mL (≈ 1.64 µM).
As for `Cc1cc(=O)oc2cc(OCC(O)Cn3cncn3)c(OCC(O)Cn3cncn3)cc12` (stereo not drawn), in data set [1], the logP at 24 h was 0.65. The MIC against Shigella dysenteriae is 16 µg/mL (≈ 36.2 µM); in the data set with Cyberlindnera jadinii, 4 µg/mL (≈ 9.04 µM); in the data set on Staphylococcus aureus it was 8 µg/mL (≈ 18.1 µM); with Bacillus subtilis, 16 µg/mL (≈ 36.2 µM); in the data set on Aspergillus flavus, 32 µg/mL (≈ 72.3 µM); in the data set with Candida albicans, 1 µg/mL (≈ 2.26 µM). Besides, the MIC was 4 µg/mL (≈ 9.04 µM) in the data set with Candida; 32 µg/mL (≈ 72.3 µM) against Pseudomonas aeruginosa; 32 µg/mL (≈ 72.3 µM) against Saccharomyces cerevisiae; 32 µg/mL (≈ 72.3 µM) with Micrococcus luteus; 1 µg/mL (≈ 2.26 µM) with Escherichia coli.
`Cc1cc(=O)oc2cc(OCC(O)Cn3nnc4ccccc43)c(OCC(O)Cn3nnc4ccccc43)cc12` (stereo not drawn): in [1], the logP at 24 h was found to be 0.48. In addition, the MIC amounted to 64 µg/mL (≈ 118 µM) in the data set on Shigella dysenteriae; 16 µg/mL (≈ 29.5 µM) with Cyberlindnera jadinii; 32 µg/mL (≈ 59 µM) in the data set on Staphylococcus aureus; 64 µg/mL (≈ 118 µM) against Bacillus subtilis; 256 µg/mL (≈ 472 µM) against Aspergillus flavus; 8 µg/mL (≈ 14.7 µM) against Candida albicans. The MIC in the data set with Candida was found to be 16 µg/mL (≈ 29.5 µM); against Pseudomonas aeruginosa, 32 µg/mL (≈ 59 µM); in the data set on Saccharomyces cerevisiae it was 32 µg/mL (≈ 59 µM); with Micrococcus luteus, 16 µg/mL (≈ 29.5 µM); with Escherichia coli, 32 µg/mL (≈ 59 µM).
`Cc1cc(=O)oc2cc(OCC(O)Cn3cnc4ccccc43)c(OCC(O)Cn3cnc4ccccc43)cc12` (stereo not drawn) displayed a logP at 24 h in data set [1] of 0.49. For the same compound, the MIC against Shigella dysenteriae was greater than 512 µg/mL; in the data set on Cyberlindnera jadinii it was 512 µg/mL (≈ 947 µM); in the data set with Staphylococcus aureus, 512 µg/mL (≈ 947 µM); against Bacillus subtilis, greater than 512 µg/mL; with Aspergillus flavus it was 512 µg/mL (≈ 947 µM); against Candida albicans, greater than 512 µg/mL. Also, the MIC in the data set on Candida is 64 µg/mL (≈ 118 µM); against Pseudomonas aeruginosa it was 128 µg/mL (≈ 237 µM); against Saccharomyces cerevisiae, greater than 512 µg/mL; against Micrococcus luteus, 128 µg/mL (≈ 237 µM); against Escherichia coli it was greater than 512 µg/mL.
`Cc1cc2ncn(CC(O)COc3cc4oc(=O)cc(C)c4cc3OCC(O)Cn3cnc4cc(C)c(C)cc43)c2cc1C` (stereo not drawn): in [1], the logP at 24 h was determined as 0.61. Moreover, the MIC turned out to be 16 µg/mL (≈ 26.8 µM) with Shigella dysenteriae; 4 µg/mL (≈ 6.7 µM) against Cyberlindnera jadinii; 32 µg/mL (≈ 53.6 µM) against Staphylococcus aureus; 128 µg/mL (≈ 215 µM) with Bacillus subtilis; 64 µg/mL (≈ 107 µM) in the data set on Aspergillus flavus; 16 µg/mL (≈ 26.8 µM) against Candida albicans. Further, the MIC against Candida was 32 µg/mL (≈ 53.6 µM); in the data set on Pseudomonas aeruginosa, 16 µg/mL (≈ 26.8 µM); against Saccharomyces cerevisiae it was 16 µg/mL (≈ 26.8 µM); with Micrococcus luteus, 64 µg/mL (≈ 107 µM); with Escherichia coli, 32 µg/mL (≈ 53.6 µM).
As to `Cc1cc(=O)oc2cc(OCC(O)CSc3nc4ccccc4[nH]3)c(OCC(O)CSc3nc4ccccc4[nH]3)cc12` (stereo not drawn), the logP at 24 h in data set [1] came to 0.58. In addition, the MIC is 32 µg/mL (≈ 52.9 µM) with Shigella dysenteriae; 2 µg/mL (≈ 3.31 µM) in the data set on Cyberlindnera jadinii; 64 µg/mL (≈ 106 µM) against Staphylococcus aureus; 64 µg/mL (≈ 106 µM) against Bacillus subtilis; 64 µg/mL (≈ 106 µM) against Aspergillus flavus; 8 µg/mL (≈ 13.2 µM) with Candida albicans. The MIC in the data set with Candida worked out at 16 µg/mL (≈ 26.5 µM); against Pseudomonas aeruginosa, 16 µg/mL (≈ 26.5 µM); in the data set on Saccharomyces cerevisiae, 16 µg/mL (≈ 26.5 µM); against Micrococcus luteus, 32 µg/mL (≈ 52.9 µM); with Escherichia coli, 0.5 µg/mL (≈ 0.827 µM).
With `OC(Cn1cncn1)(Cn1cncn1)c1ccc(F)cc1F` [FLUCONAZOLE], the MIC against Cyberlindnera jadinii was determined as 8 µg/mL (≈ 26.1 µM); with Aspergillus flavus, 256 µg/mL (≈ 836 µM); against Candida albicans, 1 µg/mL (≈ 3.27 µM); in the data set with Candida, 4 µg/mL (≈ 13.1 µM); with Saccharomyces cerevisiae, 16 µg/mL (≈ 52.2 µM).
On to `CCn1cc(C(=O)O)c(=O)c2cc(F)c(N3CCNCC3)cc21` [NORFLOXACIN], for which the MIC against Shigella dysenteriae is 4 µg/mL (≈ 12.5 µM); with Staphylococcus aureus, 8 µg/mL (≈ 25.1 µM); against Bacillus subtilis, 16 µg/mL (≈ 50.1 µM); against Pseudomonas aeruginosa it was 1 µg/mL (≈ 3.13 µM); in the data set with Micrococcus luteus it was 2 µg/mL (≈ 6.26 µM); in the data set on Escherichia coli, 16 µg/mL (≈ 50.1 µM).
